Assay results taken from the supplement of paper PMC10920090.

Legend:
[1] = tested on: MDA-MB-231; experiment: drug sensitivity score (DSS), cytotoxicity CellTox Green; higher = more cytotoxic; extreme values may be limits of the assay; details: 72 h
[2] = tested on: MDA-MB-231; experiment: drug sensitivity score (DSS), cell viability CellTiter-Glo; higher = more sensitive; extreme values may be limits of the assay; details: 72 h
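For drug sensitivity score (DSS), cytotoxicity CellTox Green in this document: DSS summarises each dose–response curve by combining IC50, EC50, maximal inhibition and efficacy across drug concentrations.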

SMILES	drug sensitivity score ([1]; shRNA: shPPFIA1_1)	drug sensitivity score ([1]; shRNA: shScramble)	drug sensitivity score ([2]; shRNA: shPPFIA1_1)	drug sensitivity score ([2]; shRNA: shScramble)
CC1(C)CCC(c2ccc(Cl)cc2)=C(CN2CCN(c3ccc(C(=O)NS(=O)(=O)c4ccc(N[C@H](CCN5CCOCC5)CSc5ccccc5)c(S(=O)(=O)C(F)(F)F)c4)cc3)CC2)C1 [Navitoclax]	15.2 DSS	12.4 DSS	4.4 DSS	4.4 DSS
C=CCn1c(=O)c2cnc(Nc3ccc(N4CCN(C)CC4)cc3)nc2n1-c1cccc(C(C)(C)O)n1 [MK1775]	9.4 DSS	7.6 DSS	5.1 DSS	7.5 DSS
Nc1cc(F)ccc1NC(=O)/C=C/c1cnn(C/C=C/c2ccccc2)c1 [RGFP966]	3.1 DSS	0 DSS	2.6 DSS	0.2 DSS
O=C(O)c1ccc2c(c1)nc(Nc1cccc(Cl)c1)c1ccncc12 [Silmitasertib]	0 DSS	0 DSS	0 DSS	3.5 DSS
COCC(=O)NC/C=C/c1ccc2ncnc(Nc3ccc(Oc4ccc(C)nc4)c(C)c3)c2c1	2.2 DSS	0 DSS	0 DSS	0.3 DSS
OC[C@H]1O[C@@H](n2cnc3c2N=CNC[C@H]3O)C[C@@H]1O [Pentostatin]	0 DSS	0 DSS	0.5 DSS	0.2 DSS
CN1CCC(COc2cnc(-c3cccc(Cn4nc(-c5cccc(C#N)c5)ccc4=O)c3)nc2)CC1	0 DSS	0 DSS	0 DSS	0 DSS
CN(Cc1cnc2nc(N)nc(N)c2n1)c1ccc(C(=O)N[C@@H](CCC(=O)O)C(=O)O)cc1 [Methotrexate]	0 DSS	0 DSS	2.8 DSS	4 DSS
CCOc1cc2ncc(C#N)c(Nc3ccc(F)c(Cl)c3)c2cc1NC(=O)/C=C/CN(C)C [Pelitinib]	2.7 DSS	0 DSS	14.9 DSS	21.1 DSS
COc1cc(N2CCC(N3CCN(C)CC3)CC2)ccc1Nc1ncnc(Nc2ccccc2S(=O)(=O)C(C)C)n1 [ASP3026]	0 DSS	0 DSS	0.3 DSS	3.7 DSS
COc1cccc(OCCCN)c1-c1cc(Nc2cnc(C#N)cn2)n[nH]1 [Prexasertib]	21 DSS	6.9 DSS	13.2 DSS	29.8 DSS
C[C@]12CC[C@H](O)CC1=CC[C@@H]1[C@@H]2CC[C@]2(C)C(c3cccnc3)=CC[C@@H]12 [Abiraterone]	0 DSS	0 DSS	0 DSS	0.9 DSS
CN(N=O)C(=O)N[C@@H](C=O)[C@@H](O)[C@H](O)[C@H](O)CO [Streptozocin]	0 DSS	0 DSS	0.1 DSS	0.3 DSS
CNC(=O)c1cc(Oc2ccc(NC(=O)Nc3cc(C(C)(C)C)nn3-c3ccc4ncccc4c3)c(F)c2)ccn1 [Rebastinib]	0 DSS	0 DSS	0 DSS	0 DSS
COc1nc(N)nc2c1ncn2[C@@H]1O[C@H](CO)[C@@H](O)[C@@H]1O [Nelarabine]	0 DSS	0 DSS	0 DSS	0 DSS
CC[C@H](C)C(=O)O[C@H]1C[C@@H](C)C=C2C=C[C@H](C)[C@H](CC[C@@H]3C[C@@H](O)CC(=O)O3)[C@H]21 [Lovastatin]	0 DSS	0 DSS	0 DSS	0 DSS
CCCCCOC(=O)Nc1nc(=O)n([C@@H]2O[C@H](C)[C@@H](O)[C@H]2O)cc1F [Capecitabine]	0 DSS	0 DSS	0 DSS	0 DSS
